In patent publication US20150045387A1, “Bi-Aromatic And Tri-Aromatic Compounds As NADPH Oxidase 2 (Nox2) Inhibitors” (The University of Surrey, priority 2011, published 2015):

Experiments:
[1] = test system: bone marrow hematopoietic stem cells; assay: in vivo test of LMH001 on bone marrow hematopoietic stem cell proliferation (MTS assay); details: 2.2 mg/kg/day intra-peritoneal for two weeks, compared to vehicle injected controls, n=8 mice/per group
Method: FIG. 3 is a graph showing the effect of LMH001 (2 week, IP injection) on bone marrow hematopoietic stem cell proliferation in mice. Wild-type mice (C57BL6/J) at 5 months of age were injected intra-peritoneal with LMH001 at 2.2 mg/kg/day for two weeks. Bone marrow hematopoietic stem cells were isolated and test for cell proliferation by a MTS assay kit (Promega).
On the day of experiment, primary hematopoietic bone marrow cells were obtained from wild-type male C57BL/6 mice as described previously (11). Briefly, 12-16 week old mice were sacrificed by cervical dislocation and their hind legs dissected and carefully cleaned from adherent tissues. Next, the ends of each bone were removed to expose the marrow and this was collected by flushing the femurs and tibias using a 25 gauge needle loaded with Dulbecco's PBS. […]
The ex vivo proliferative capabilities of isolated BMSC or cultured cells were analyzed using the MTS proliferation assay. […] After 24 hours in culture medium containing LMH001 (0-10 μM), proliferation was assessed using the MTS (CellTiter 96 AQ; Promega, Madison, USA) assay according to the manufacturer's protocol. The absorbance at 490 nm was read using an ELISA plate reader (Perkin elmer), and the proliferation index calculated relative to the controls. The mean of 3 blank readings was subtracted from each corrected value. […]

[2] = test system: human lung alveolar epithelial cancer cells (A549 cells); assay: EGF-induced cell proliferation of A549 cells (cell counting); format: cell-based; details: LMH001 5 μM, 24 h
Method: (§1) A549 cells were seeded at equal number the day before experiments and then stimulated with or without […] (EGF, 10 ng/ml) for 24 h in the presence or absence of LMH001 (5 μM). Cells were then trypsinized and counted. Cell homogenates were used for measuring O2.^− production by lucigenin-chemiluminescence in the presence of NADPH (100 μM).
(§2) A549 is a human lung adenocarcinoma epithelial cell line. A549 cells were grown in DMEM, containing 10% (v/v) heat inactivated foetal calf serum, 100 U/mL penicillin and […] streptomycin, in a humidified atmosphere at 37° C. with 5% CO2.

[3] = test system: HepG2 cells; assay: normal cell proliferation, MTS assay, HepG2; format: cell-based, human; details: HepG2, LMH001 up to 10 μM, 24 h
Method: A) SVEC4-10 cells and HepG2 cells were cultured in the presence or absence of LHM001 (0-10 μM) for 24 h and tested for cell proliferation using a MTS assay kit. B) HL-60 cells were cultured in the presence or absence of LMH001 (0-10 μM), and cell proliferation was examined at 6, 12 and 24 h of culture.
HepG2 is a human hepatocytic cell line (ATCC No. HB-8065) that was originally derived from liver tissue with a well differentiated hepatocellular carcinoma. HepG2 cells have been proven to be a suitable in vitro model system for the study of human hepatocytes, and the study of liver metabolism and toxicity. HepG2 cells were grown in DMEM, containing 10% (v/v) heat inactivated foetal calf serum, 100 U/mL penicillin and […] streptomycin, in a humidified atmosphere at 37° C. with 5% CO2.
The ex vivo proliferative capabilities of isolated BMSC or cultured cells were analyzed using the MTS proliferation assay. […] After 24 hours in culture medium containing LMH001 (0-10 μM), proliferation was assessed using the MTS (CellTiter 96 AQ; Promega, Madison, USA) assay according to the manufacturer's protocol. The absorbance at 490 nm was read using an ELISA plate reader (Perkin elmer), and the proliferation index calculated relative to the controls. The mean of 3 blank readings was subtracted from each corrected value.

[4] = test system: human lung alveolar epithelial cancer cells (A549 cells); assay: EGF-induced O2.- production in A549 cells, lucigenin-chemiluminescence; format: cell-based; details: LMH001 5 μM, 24 h
Method: as §1, §2
O2^− production by different cell types was measured using lucigenin (5 μM)-chemiluminescence. A microplate luminometer (LumiStar, BMG) was used, which allows the examination of 96 samples at the same time with kinetic reading facilities. […] Dark-adapted lucigenin (5 μM) was added into the well through an auto-dispenser located in the dark chamber just before reading. The light emission was recorded over a 60 minute period and expressed as arbitrary MLU measured by the illuminometer. Each experiment was performed in triplicate and the mean of 3 blank readings was subtracted from each corrected value for each reading. […]

[5] = no EGF, compared to medium only

SMILES: O=C(OCc1cccc(O)c1O)c1ccc(O)c(CO)c1 [LMH001, (2,3,-dihydroxyphenyl)methyl 4-hydroxy-3-(hydroxymethyl)benzoate]
- toxic effect on bone marrow hematopoietic stem cell proliferation [1]: no toxic effect
- EGF-induced A549 cell proliferation ([2]; EGF 10 ng/ml, cells counted): inhibited completely
- A549 cell proliferation, LMH001 alone [2, 5]: no significant effect
- normal cell proliferation under physiological condition [3]: no significant effect
- EGF-induced O2.- production ([4]; EGF 10 ng/ml): inhibited completely
- A549 cell O2.- production, LMH001 alone [4, 5]: no significant effect
